The first assay deals with T1, FGFR-1 (Homo sapiens, UniProt P11362).
T1 construct: GST; made in house
T1 sequence (P11362 22-822): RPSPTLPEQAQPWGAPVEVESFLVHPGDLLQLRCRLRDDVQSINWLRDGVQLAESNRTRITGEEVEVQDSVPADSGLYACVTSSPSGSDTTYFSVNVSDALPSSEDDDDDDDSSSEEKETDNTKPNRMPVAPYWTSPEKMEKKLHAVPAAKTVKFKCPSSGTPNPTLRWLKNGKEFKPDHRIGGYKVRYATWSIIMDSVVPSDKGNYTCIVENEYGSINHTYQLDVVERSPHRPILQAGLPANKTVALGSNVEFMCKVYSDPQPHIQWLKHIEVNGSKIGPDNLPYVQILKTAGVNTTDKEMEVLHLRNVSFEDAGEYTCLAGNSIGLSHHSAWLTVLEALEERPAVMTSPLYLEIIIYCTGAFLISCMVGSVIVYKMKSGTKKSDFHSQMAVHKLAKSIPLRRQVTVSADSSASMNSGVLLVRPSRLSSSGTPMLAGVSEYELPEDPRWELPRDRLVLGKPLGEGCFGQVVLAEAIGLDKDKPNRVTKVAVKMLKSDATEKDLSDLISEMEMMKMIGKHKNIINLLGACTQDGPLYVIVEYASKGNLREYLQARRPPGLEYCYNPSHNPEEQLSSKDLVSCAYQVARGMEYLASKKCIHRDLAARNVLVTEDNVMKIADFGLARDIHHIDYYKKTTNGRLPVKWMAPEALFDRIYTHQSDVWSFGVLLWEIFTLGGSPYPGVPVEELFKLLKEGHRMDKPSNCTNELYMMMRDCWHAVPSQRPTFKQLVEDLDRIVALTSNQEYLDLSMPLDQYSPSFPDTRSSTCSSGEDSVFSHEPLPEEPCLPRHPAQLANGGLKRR
The experiment in a line: FGFR-1 TR-FRET biochemical assay. To be noted: 0.6 uM ATP, 5 nM FGFR1-GST; bounds given in nM. The procedure, abridged: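 In this LANCE time-resolved FRET format, compounds at final 10 μM–0.128 nM (1% DMSO, 1:5 series) were preincubated before enzyme start. Reactions ran for one hour at room temperature with 0.6 uM ATP, 25 nM biotinylated poly GT and 5 nM GST-tagged FGFR1. Inhibition was calculated from the 665/615 nm ratio minus the ATP-free background.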
As usually defined, the IC50 is the concentration that inhibits the measured activity by half. The low end stands for higher potency, the high end for lower potency. `COCCN1CCC(c2cc(-c3ccc(NC(=O)Nc4cc(C(F)(F)F)ccc4F)c(Cl)c3)c3c(N)ncnn23)CC1` [Example 241, N-(4-{4-amino-7-[1-(2-methoxyethyl)piperidin-4-yl]pyrrolo[2,1-f][1,2,4]triazin-5-yl}-2-chlorophenyl)-N′-[2-fluoro-5-(trifluoromethyl)phenyl]urea] had an IC50 of less than 10 nM.

On to `Nc1ncnn2c(C3CCNCC3)cc(-c3ccc(NC(=O)Nc4cc(C(F)(F)F)ccc4F)cc3)c12` [Example 242, N-[4-(4-amino-7-piperidin-4-ylpyrrolo[2,1-f][1,2,4]triazin-5-yl)phenyl]-N′-[2-fluoro-5-(trifluoromethyl)phenyl]urea], for which the IC50 was less than 10 nM.

As to `CCOCCN1CCC(c2cc(-c3ccc(NC(=O)Nc4cc(C(F)(F)F)ccc4F)c(Cl)c3)c3c(N)ncnn23)CC1` [Example 243, N-(4-{4-amino-7-[1-(2-ethoxyethyl)piperidin-4-yl]pyrrolo[2,1-f][1,2,4]triazin-5-yl}-2-chlorophenyl)-N′-[2-fluoro-5-(trifluoromethyl)phenyl]urea], the IC50 was in the range of 10 to 100 nM.

For `Nc1ncnn2c(CCN3CCOCC3)cc(-c3ccc(NC(=O)Nc4cc(C(F)(F)F)ccn4)c(F)c3)c12` [Example 250, 1-{4-[4-amino-7-(2-morpholin-4-ylethyl)pyrrolo[2,1-f][1,2,4]triazin-5-yl]-2-fluorophenyl}-3-[4-(trifluoromethyl)pyridin-2-yl]urea], the IC50 fell in the range of 10 to 100 nM.

As to `CC(O)c1cc(-c2ccc(NC(=O)Nc3cc(C(F)(F)F)ccc3F)c(F)c2)c2c(N)ncnn12` (stereo not shown) [Example 252, N-{4-[4-amino-7-(1-hydroxyethyl)pyrrolo[2,1-f][1,2,4]triazin-5-yl]-2-fluorophenyl}-N′-[2-fluoro-5-(trifluoromethyl)phenyl]urea], the IC50 fell in the range of 10 to 100 nM.

`CC(=O)c1cc(-c2ccc(NC(=O)Nc3cc(C(F)(F)F)ccc3F)c(F)c2)c2c(N)ncnn12` [Example 253, N-[4-(7-acetyl-4-aminopyrrolo[2,1-f][1,2,4]triazin-5-yl)-2-fluorophenyl]-N′-[2-fluoro-5-(trifluoromethyl)phenyl]urea]: the IC50 was less than 10 nM.

In turn, `Nc1ncnn2c(C(O)CO)cc(-c3ccc(NC(=O)Nc4cc(C(F)(F)F)ccc4F)c(F)c3)c12` (stereo not shown) [Example 254, N-{4-[4-amino-7-(1,2-dihydroxyethyl)pyrrolo[2,1-f][1,2,4]triazin-5-yl]-2-fluorophenyl}-N′-[2-fluoro-5-(trifluoromethyl)phenyl]urea] had an IC50 of more than 100 nM.

Take `Nc1ncnn2c(C(O)C(O)CO)cc(-c3ccc(NC(=O)Nc4cc(C(F)(F)F)ccc4F)c(F)c3)c12` (stereo not shown) [Example 255, N-{4-[4-amino-7-(1,2,3-trihydroxypropyl)pyrrolo[2,1-f][1,2,4]triazin-5-yl]-2-flourophenyl}-N′-[2-fluoro-5-(trifluoromethyl)phenyl]urea]: the IC50 is 10 to 100 nM.

As to `CC(=O)c1cc(-c2ccc(NC(=O)Nc3cc(C(F)(F)F)ccn3)c(F)c2)c2c(N)ncnn12` [Example 259, N-[4-(7-acetyl-4-aminopyrrolo[2,1-f][1,2,4]triazin-5-yl)-2-fluorophenyl]-N′-[4-(trifluoromethyl)pyridin-2-yl]urea], the IC50 was less than 10 nM.

Molecule `Nc1ncnn2c(C(=O)COCCN3CCOCC3)cc(-c3ccc(NC(=O)Nc4cc(C(F)(F)F)ccc4F)c(F)c3)c12` [Example 260, N-(4-{4-amino-7-[(2-morpholin-4-ylethoxy)acetyl]pyrrolo[2,1-f][1,2,4]triazin-5-yl}-2-fluorophenyl)-N′-[2-fluoro-5-(trifluoromethyl)phenyl]urea] had an IC50 of more than 100 nM.

Consider `Nc1ncnn2c(CN3CCOCC3)cc(-c3ccc(NC(=O)Nc4cccc(C(F)(F)F)c4)c(C(F)(F)F)c3)c12` [Example 269, N-[4-[4-amino-7-(morpholin-4-ylmethyl)pyrrolo[2,1-f][1,2,4]triazin-5-yl]-2-(trifluoromethyl)phenyl]-N′-[3-(trifluoromethyl)phenyl]urea], for which the IC50 was less than 10 nM.

As for `Nc1ncnn2c(-c3cnco3)cc(-c3ccc(NC(=O)Nc4cc(C(F)(F)F)ccn4)c(F)c3)c12` [Example 273, N-{4-[4-amino-7-(1,3-oxazol-5-yl)pyrrolo[2,1-f][1,2,4]triazin-5-yl]-2fluorophenyl}-N′-[4-(trifluoromethyl)pyridin-2-yl]urea], the IC50 lay in the range of 10 to 100 nM.

`Nc1ncnn2c(CC3CNCCO3)cc(-c3ccc(NC(=O)Nc4cc(C(F)(F)F)ccc4F)c(F)c3)c12` (stereo not shown) [Example 276, N-{4-[4-amino-7-(morpholin-2-ylmethyl)pyrrolo[2,1-f][1,2,4]triazin-5-yl]-2-fluorophenyl}-N′-[2-fluoro-5-(trifluoromethyl)phenyl]urea] returned an IC50 of 10 to 100 nM.

Regarding `Nc1ncnn2c(C(=O)NCC3CNCCO3)cc(-c3ccc(NC(=O)Nc4cc(C(F)(F)F)ccc4F)c(F)c3)c12` (stereo not shown) [Example 283, 4-amino-5-{3-fluoro-4-[({[2-fluoro-5-(trifluoromethyl)-phenyl]amino}carbonyl)amino]phenyl}-N-(morpholin-2-ylmethyl)pyrrolo[2,1-f][1,2,4]triazine-7-carboxamide], the IC50 lay in the range of 10 to 100 nM.

Regarding `COC[C@H]1CCCN1C(=O)c1cc(-c2ccc(NC(=O)Nc3cc(C(F)(F)F)ccc3F)c(F)c2)c2c(N)ncnn12` [Example 284, N-[4-(4-amino-7-{[2-(methoxymethyl)pyrrolidin-1-yl]carbonyl}pyrrolo[2,1-f][1,2,4]triazin-5-yl)-2-fluorophenyl]-N′-[2-fluoro-5-(trifluoromethyl)phenyl]urea], the IC50 is 10 to 100 nM.

On to `Nc1ncnn2c(CN3CCOCC3)cc(-c3ccc(NC(=O)Nc4cc(C(F)(F)F)cc[n+]4[O-])c(F)c3)c12` [Example 287, N-{4-[4-amino-7-(morpholin-4-ylmethyl)pyrrolo[2,1-f][1,2,4]triazin-5-yl]-2-fluorophenyl}-N′-[1-oxido-4-(trifluoromethyl)pyridin-2-yl]urea], for which the IC50 was less than 10 nM.

Regarding `Nc1ncnn2c(C(=O)C3CNCCO3)cc(-c3ccc(NC(=O)Nc4cc(C(F)(F)F)ccc4F)c(F)c3)c12` (stereo not shown) [Example 289, N-{4-[4-amino-7-(morpholin-2-ylcarbonyl)pyrrolo[2,1-f][1,2,4]triazin-5-yl]-2-fluorophenyl}-N′-[2-fluoro-5-(trifluoromethyl)phenyl]urea], the IC50 was in the range of 10 to 100 nM.

For the molecule `Nc1ncnn2c(C(=O)NCC3CNCCO3)cc(-c3ccc(NC(=O)Nc4cccc(C(F)(F)F)c4)c(F)c3)c12` (stereo not shown) [Example 293, 4-amino-5-{3-fluoro-4-[({[3-(trifluoromethyl)phenyl]-amino}carbonyl)amino]phenyl}-N-(morpholin-2-ylmethyl)pyrrolo[2,1-f][1,2,4]-triazine-7-carboxamide], the IC50 lay in the range of 10 to 100 nM.

`Nc1ncnn2c(CC3CNCCO3)cc(-c3ccc(NC(=O)Nc4cccc(C(F)(F)F)c4)c(F)c3)c12` (stereo not shown) [Example 301, N-{4-[4-amino-7-(morpholin-2-ylmethyl)pyrrolo[2,1-f][1,2,4]triazin-5-yl]-2-fluorophenyl}-N′-[3-(trifluoromethyl)phenyl]urea] came in with a 50% inhibitory concentration (IC50) of 10 to 100 nM.

The assay is the same for the next values; noted with them: upper bound of the bin 'greater than 100 nM but less than 1 μM' (lower bound in E1).
`Nc1ncnn2c(C(O)CO)cc(-c3ccc(NC(=O)Nc4cc(C(F)(F)F)ccc4F)c(F)c3)c12` (stereo not shown) [Example 254, N-{4-[4-amino-7-(1,2-dihydroxyethyl)pyrrolo[2,1-f][1,2,4]triazin-5-yl]-2-fluorophenyl}-N′-[2-fluoro-5-(trifluoromethyl)phenyl]urea] registered an IC50 of less than 1000 nM.

For the molecule `Nc1ncnn2c(C(=O)COCCN3CCOCC3)cc(-c3ccc(NC(=O)Nc4cc(C(F)(F)F)ccc4F)c(F)c3)c12` [Example 260, N-(4-{4-amino-7-[(2-morpholin-4-ylethoxy)acetyl]pyrrolo[2,1-f][1,2,4]triazin-5-yl}-2-fluorophenyl)-N′-[2-fluoro-5-(trifluoromethyl)phenyl]urea], the IC50 is less than 1000 nM.

The test system of the next assay is histone 3 phosphorylation in colon carcinoma (HCT116). Kind of assay: p-Histone3 assay. Type of assay: cell-based. To be noted: Homo sapiens, HCT-116, 24 h, HCT116, 24 h treatment; bounds given in μM. As for the experimental part: Compounds were assayed for the inhibition of histone 3 phosphorylation in colon carcinoma (HCT116). Briefly, 20,000 cells/well were seeded in a 96-well black-walled, poly-d-lysine plates in RPMI+10% FBS and incubated at 37° C. in 5% CO2 overnight. The following day, the cells were treated with compounds for 24 hours at 37° C. Following compound treatment; plates were centrifuged at 1000 rpm for 2 minutes and washed twice with 100 μl of cold sterile TBS. Cells were then fixed with cold 3.7% formaldehyde in TBS (4° C. for 1 hour) and then permeabolized with 0.1% Triton-X-100 in TBS (room temperature for 30 minutes). Plates were then washed with of 0.25% BSA-TBS and blocked with BSA solution for 1 hour at room temperature while shaking. The supernatant was removed and replaced with diluted primary antibody (anti-phospho-histone 3, serine 10, Cell Signaling) at 1:250 in 0.25% BSA-TBS and incubated overnight at 4° C. The plates were washed and treated with diluted secondary antibody (anti-rabbit Eu-labeled) at 1:10000 in 0.25% BSA-TBS (room temperature for 1 hour). The antibody solution was removed from each well and washed eight times. The wash buffer was replaced with 50 μl pre-warmed enhancement solution and mixed on the orbital shaker for 10 minutes. Fluorescence was detected with a Victor V Fluorescence Detector. The data are expressed as percent inhibition: % inhibition=100−((Signal with inhibitor−background)/(Signal without inhibitor−background))−100.
In the case of `Cc1ccc(F)c(NC(=O)Nc2ccc(-c3cc(CN4CCOCC4)n4ncnc(N)c34)cc2)c1` [Example 46, N-{4-[4-amino-7-(morpholin-4-ylmethyl)pyrrolo[2,1-f][1,2,4]triazin-5-yl]phenyl}-N′-(2-fluoro-5-methylphenyl)urea], the IC50 lay in the range of 5 to 10 µM.

Consider `Nc1ncnn2c(CN3CCOCC3)cc(-c3ccc(NC(=O)Nc4ccc(C(F)(F)F)cn4)cc3)c12` [Example 56, N-{4-[4-amino-7-(morpholin-4-ylmethyl)pyrrolo[2,1-f][1,2,4]-triazin-5-yl]phenyl}-N′-[5-(trifluoromethyl)pyridin-2-yl]urea], for which the IC50 was in the range of 5 to 10 µM.

`COc1cccc(NC(=O)Nc2ccc(-c3cc(CN4CCOCC4)n4ncnc(N)c34)cc2F)n1` [Example 72, N-4-[4-amino-7-(morpholin-4-ylmethyl)pyrrolo[2,1-f][1,2,4]triazin-5-yl]-2-fluorophenyl-N′-(6-methoxypyridin-2-yl)urea] yielded an IC50 of 5 to 10 µM.

In turn, `Nc1ncnn2c(CN3CCOCC3)cc(-c3ccc(NC(=O)Nc4cccc(Br)n4)c(F)c3)c12` [Example 73, N-4-[4-amino-7-(morpholin-4-ylmethyl)pyrrolo[2,1-f][1,2,4]-triazin-5-yl]-2-fluorophenyl-N′-(6-bromopyridin-2-yl)urea] registered a half-maximal inhibitory concentration (IC50) of 5 to 10 µM.

The values are drawn from patent US8143393B2, “Substituted 4-amino-pyrrolotriazine derivatives useful for treating hyper-proliferative disorders and diseases associated with angiogenesis” (Bayer HealthCare LLC, priority 2005, dated 2012).
